The subject of experiment [1] is Gluconacetobacter diazotrophicus. Briefly: Microtiter-plate biofilm formation assay (crystal violet staining) with rice root exudates. In kind it is cell-based. The conditions noted are these: for Biofilm production (natural flavonoids, FIG. 7): exposed for 3 days to Oryza sativa root exudates supplemented with […] of the indicated compounds; for Biofilm formation, comparison of flavones (FIG. 11): 3 days with Oryza sativa root exudates supplemented with indicated concentrations; for Biofilm formation in chemical screening (normalized to DMSO control): wild-type rice (Kitaake) root exudate 198 μL + 2 μL of 10 mM compound, 3 days, crystal violet staining. On the procedure: FIG. 3. […] Biofilm formation of Glucanoacetobacter diazotrophicus was assessed incubated with wild-type rice (Oryza sativa Kitaake) root exudates supplemented with 2 μl of each of 500 flavonoid and derivated compounds of a chemical library (FL-500, TimTec) and 700 compounds (natural and synthetic) (NPDepo library). Chemical screening was performed in a 96-well plate with each well containing: 198 μL of the Kitaake exudate and 2 μL of the 10 mM compound from the chemical libraries. An equal volume (2 μL) of DMSO was added to each well and served as the negative control. Gluconacetobacter diazotrophicus was added to the final OD600=0.01 to each well and incubated in a shaker at 150 rpm, 28° C. for 3 days before biofilm quantification by crystal violet staining. The value of each well in biofilm quantification was normalized to that of the DMSO control in each plate (DMSO=1). The heatmap was generated by the mean value of 3 biological replicates for each compound.
FIG. 7. Effect of natural flavonoids on biofilm formation in Glucanoacetobacter diazotrophicus. Induction of biofilm production in Gluconacetobacter diazotrophicus exposed to Oryza sativa root exudates supplemented with […] of the indicated compounds. Controls are exudates without compound and exudates with DMSO.
FIG. 11. Effects of Naringenin, Apigenin, Apigenin-7-Glucoside, and Luteolin on biofilm formation on Gluconacetobacter diazotrophicus. Values are the Mean±SD (n=6).
Any of a number of assays can be used to assess plants generated using the present methods, as well as to assess candidate plant molecules (e.g., other flavones) for their ability to upregulate biofilm production and assimilation of N2-fixing bacteria. For example, to confirm that the plants are exuding increased levels of the one or more flavones, root exudates from the plants can be isolated and the quantities and identities of the flavones determined, e.g., using mass spectrometry. In addition, the exudates (or other candidate biofilm-inducing molecules) can be incubated with N2-fixing bacteria, e.g., Glucanoacetobacter diazotrophicus, and the biofilm produced by the bacteria assessed. The biofilm can be quantified, e.g., by incubating the exudate (or candidate molecule or molecules) and bacteria in the wells of a microtiter plate, removing the cultures from the plate, washing the wells, adding a solution of crystal violet, rinsing and drying the plate, and then adding ethanol and measuring absorbance at, e.g., 540 nm. See, e.g. Example 1 and www.jove.com/video/2437/microtiter-dish-biofilm-formation-assay, the entire disclosure of which is herein incorporated by reference.
To assess the effect(s) of different chemicals on biofilm formation in N2-fixing bacteria, we used a published protocol (www.jove.com/video/2437/microtiter-dish-biofilm-formation-assay). Basically, bacteria were grown in a 96-well plate in a rich-nutrient medium at 28° C. The compound to be tested was added and the culture was grown overnight. Plant exudates and 2 μl of the compound were added to the well and the bacteria grown for 3 days under shaking (200 rpm). After 3 days, the planktonic bacterial cultures were discarded and the wells were thoroughly washed with water. A solution of 1% of crystal violet was added to each well of the plate and the plate shaken for 10-15 min at 200 rpm. The plates are rinsed 3-4 times with water (by submerging the plants in a tub of water), shaken vigorously and blotted on a stack of paper towels (to eliminate excess of cells and dye), the microliter plate was placed upside down and air dried. To quantify the amount of biofilm that adhered to the well walls, 200 μl of ethanol were added to each well, the plates shacked at 200 rpm, at 28° C. for 10-15 min. The absorbance of the solution was measured at 540 nm, using ethanol as a blank (FIG. 1). […]

Experiment [2] deals with Glucanoacetobacter diazotrophicus. Briefly: Acetylene reduction assay (ARA) for bacterial N2 fixation. The format is cell-based. The conditions noted are these: Kitaake rice root exudates and 100 μM, 3 days at 28° C., then acetylene 4 days. Here is the method: (§1) FIGS. 5A-5C. Effects of the addition of luteolin or apigenin to biofilm formation in Glucanoacetobacter diazotrophicus. FIG. 5A: Effects of the addition of luteolin to biofilm formation in a Glucanoacetobacter diazotrophicus suspension.
FIGS. 12A-12C. Effects of flavones (Naringenin, Apigenin, Apigenin-7-Glucoside) on bacterium N2-fixation. FIG. 12A: Activity was assessed by measuring the conversion of acetylene to ethylene by Gas Chromatography. FIG. 12B: Assimilation of Nitrogen by Kitaake rice plants, incubated with Glucanoacetobacter in the absence (DMSO) or presence of Apigenin. Nitrogen assimilation was assessed by feeding ^15N2 and measuring assimilated inorganic ^15N in leaf tissues after 2 weeks, using Mass Spectroscopy. […]
The N2-fixing activity of the bacteria can be assessed, e.g., using an acetylene reduction assay (ARA), in which bacteria are cultured in the presence of acetylene gas, and the conversion of acetylene to ethylene measured by, e.g., gas chromatography.
To assess the effects of the flavones on bacteria N2 fixation, we used the acetylene reduction assay (ARA), where gas acetylene is added, and the resulting ethylene is measured by Gas Chromatography. […] Ten % of the air in the tube was replaced by acetylene, the cells incubated for 4 days and ethylene was measured by gas chromatography (FIG. 12A). […]

Another experiment deals with Glucanoacetobacter. Kind of experiment: Biofilm formation in suspension of double-labelled (mCherry, gumDpro::GFP) Glucanoacetobacter. The format is cell-based, Glucanoacetobacter diazotrophicus. The note with it: addition of compound to a suspension of Glucanoacetobacter (FIGS. 5A, 5B).
Source text: as §1
The activity of the exudate or of candidate molecules can also be assessed in vivo, e.g., by using transgenic N2-fixing bacteria such as Glucanoacetobacter diazotrophicus that constitutively express a label such as mCherry. The bacteria can also express labeled components of biofilms, e.g., in bacteria transformed with gumDpro::GFP. The double labeling in such bacteria allows the visualization of the bacteria and, independently, the development of biofilm in the presence or absence of the exudate or candidate molecule.
Our results indicated clustering among common moieties, particularly among heterooctacyclic compounds (e.g., Staurosporine) and […] (e.g., luteolin, apigenin) and anthraquinones (e.g. 2H03 and 4G03—Papaverine). (FIG. 4). […] Therefore we assessed the effects of luteolin and apigenin in vivo. First we assessed the formation of chemical-induced formation of biofilm in bacterial cultures. For this, we generated transgenic Glucanoacetobacter constitutively expressing mCherry (transformed with pSEVAGeng-Luc-mCherry) in order to visualize mCherry fluorescent bacteria. Then we transformed the mCherry expressing bacteria with gumDpro::GFP. GumD encodes for components of the bacterial Exopolysacharides (EPS)] in order to visualize GFP-labelled biofilms. Thus the double labelling allowed as to follow the development of biofilm while visualizing the bacteria.

Experiment [3] concerns Kitaake rice roots incubated with Glucanoacetobacter. Briefly: Microscopy of adherence of fluorescent bacteria to rice roots. In kind it is in vivo, Oryza sativa Kitaake. The conditions noted are these: versus DMSO. Here is the method: (§2) FIGS. 12A-12C. Effects of flavones (Naringenin, Apigenin, Apigenin-7-Glucoside) on bacterium N2-fixation. FIG. 12A: Activity was assessed by measuring the conversion of acetylene to ethylene by Gas Chromatography. FIG. 12B: Assimilation of Nitrogen by Kitaake rice plants, incubated with Glucanoacetobacter in the absence (DMSO) or presence of Apigenin. Nitrogen assimilation was assessed by feeding ^15N2 and measuring assimilated inorganic ^15N in leaf tissues after 2 weeks, using Mass Spectroscopy. FIG. 12C: Kitaake rice roots incubated with Glucanoacetobacter in the absence (DMSO) or presence of Apigenin.
(§3) The genetically modified plants themselves can also be assessed in any of a number of ways. For example, plants can be grown in the presence of fluorescently labeled N2-fixing bacteria, and the adherence of the bacteria to the plant root hairs, either attached to the root surface or present inside the plant tissues, can be determined. The plants can also be assessed by determining the number of tillers and/or the seed yield. In some embodiments, the assimilation of N2 fixed by bacteria in the soil is assessed by, e.g., growing the plants in the presence of ^15N2 gas, and then measuring the level of ^15N assimilated in the plant leaves, e.g., using Mass spectroscopy.
No bacteria was seen on the control treatments. […]

In experiment [4] the test system is Kitaake rice plants, incubated with Glucanoacetobacter. Kind of experiment: Assimilation of 15N2-derived nitrogen by rice plants incubated with bacteria. The format is in vivo, Oryza sativa Kitaake. The conditions noted are these: rice seedlings in soil with bacteria, 15N2 gas added; versus DMSO control. Here is the method: as §2
as §3, with “spectroscopy. […]” for “spectroscopy.”

For another experiment, the system named is Azospirillum sp. 8510. Kind of experiment: Luteolin-induced biofilm production in N2-fixing bacteria. The format is cell-based. On the procedure:
(§4) FIG. 8. Induction of biofilm production in facultative N2-fixing bacteria.
(§5) The effects of luteolin on the induction of biofilm production was tested in a number of N2-fixing bacteria (FIG. 8). While Burkholderia vietnamensis and Azoarcus sp. […] Also the response of the bacteria to luteolin was not uniform; Azoarcus sp.

Experiment [5] deals with Herbaspirillum seropedicae. The description is as above. The format is cell-based. On the procedure: as §4, §5
A further experiment relates to Azoarcus sp. CIB. Described as above. In kind it is cell-based. On the procedure: as §4
(§6) FIGS. 9A-9C. Effect of luteolin on biofilm production in Azoarcus sp. CIB (FIG. 9A), Azoarcus communis (FIG. 9B), and Burkholderia vietnamensis (FIG. 9C).
as §5

For the next experiment, the system named is Azoarcus communis. The experiment is described as above. The format is cell-based. Here is the method:
as §4, §6, §5

Experiment [6] deals with Burkholderia vietnamensis. The description is as above. In kind it is cell-based. Here is the method:
as §4, §6, §5

Consider `O=C1C[C@@H](c2ccc(O)c(O)c2)Oc2cc(O)cc(O)c21` [Eriodictyol], for which the “Biofilm production (natural flavonoids, FIG. 7)” value in experiment [1] is on record as “Only luteolin induced a significant increase”.
With `O=c1c(O)c(-c2cc(O)c(O)c(O)c2)oc2cc(O)cc(O)c12` [Myricetin], the “Biofilm production (natural flavonoids, FIG. 7)” value in experiment [1] was “Only luteolin induced a significant increase”.
The same measure, in the same setting: as for `O=C1C[C@@H](c2ccc(O)cc2)Oc2cc(O)cc(O)c21` [Naringenin], the entry is “Only luteolin induced a significant increase”.
Still for that read-out and setting: as for `O=c1c(O)c(-c2ccc(O)c(O)c2)oc2cc(O)cc(O)c12` [Quercetin], the entry is “Only luteolin induced a significant increase”.
For the compound `O=c1cc(-c2ccc(O)cc2)oc2cc(O[C@@H]3O[C@H](CO)[C@@H](O)[C@H](O)[C@H]3O)cc(O)c12` [apigenin-7-O-glucoside], the “Nitrogen fixation (conversion of acetylene to ethylene, gas chromatography)” value in experiment [2] is “promote nitrogen fixation”. Further, the “Induction of biofilm formation in bacterial suspension” value (shortened to “Induction of biofilm formation”) with Glucanoacetobacter is “showed the induction of biofilm formation”. Further, the “Biofilm formation, comparison of flavones (FIG. 11)” value (“Biofilm formation, comparison” below) in experiment [1] is “strongest biofilm induction”.
Take `O=c1cc(-c2ccc(O)cc2)oc2cc(O)cc(O)c12` [apigenin]: the “Adherence of bacteria to the root surface and inside the root tissue” value in experiment [3] is “Adherence of bacteria to the root surface and inside the root tissue can be seen”. Moreover, the “Nitrogen fixation (conversion of acetylene to ethylene, gas chromatography)” value in experiment [2] is recorded as “promote nitrogen fixation”. The “15N assimilated in the leaves” value in experiment [4] is “significant increase in ^15N into Nitrogen compounds”. Besides, in the experiment with Glucanoacetobacter, the “Induction of biofilm formation” value is recorded as “showed the induction of biofilm formation”. Besides, in experiment [1], the “Biofilm formation, comparison” value is recorded as “strongest biofilm induction” and the “Biofilm formation in chemical screening (normalized to DMSO control)” value is “biofilm inducers”. Besides, the “Biofilm formation, comparison” value in experiment [1] (listed as Apigenin) is reported as “induced a larger biofilm production than Luteolin”.
For `O=c1cc(-c2ccc(O)c(O)c2)oc2cc(O)cc(O)c12` [luteolin], the Luteolin-induced biofilm production result (with Azospirillum sp. 8510; in [5]; with Azoarcus communis) was “did not show an enhanced biofilm production” throughout. The Luteolin-induced biofilm synthesis result (with Azoarcus sp. CIB (Azoarcus sp. CIB); in [6]) was “displayed a luteolin-induced biofilm synthesis” throughout. Moreover, the “Response to luteolin relative to Burkholderia vietnamensis” value with Azoarcus sp. CIB (Azoarcus sp. CIB versus Burkholderia vietnamensis) is “lesser response to luteolin than Burkholderia vietnamensis”. For the same compound, the “Induction of biofilm formation” value in the experiment on Glucanoacetobacter is listed as “induction of biofilm formation by increasing amounts of luteolin”. Also, the “Biofilm production (natural flavonoids, FIG. 7)” value in [1] is reported as “induced a significant increase in biofilm production”. The “Biofilm formation in chemical screening (normalized to DMSO control)” value in [1] is on record as “biofilm inducers”.

Source of the values: patent publication US20230257758A1, “PLANT METABOLITE-MEDIATED INDUCTION OF BIOFILM FORMATION IN SOIL BACTERIA TO INCREASE BIOLOGICAL NITROGEN FIXATION AND PLANT NITROGEN ASSIMILATION” (The Regents of the University of California, priority 2020, published 2023).
